One data set deals with L-1210 leukemia. The data set can be described thus: first experiment: L-1210 leukemia in mice, T/C percentage and long term survival. Conditions: for Survival after 60 days: survivors/animals; for antitumor activity (in words): versus c-DDP and ligand alone. It is filed as in vivo. As for the experimental part: Pt(DMSO)Cl2 ].2HCl.H2 O (coded BBR 1651), water soluble, and cis-[1,4-bis-[2-(2-hydroxyethylamino)ethylamino]-5,8-dihydroxy-9,10-anthracenedione.PtCl2 ].2HCl.H2 O (coded BBR 1734) are tested in comparison with equimolecular dosages of 1,4-bis-[2-(2-hydroxyethylamino)ethylamino]-5,8-dihydroxy-9,10-anthracenedione (DHAQ.2HCl) and with c-DDP dosed at 7 mg/kg, against L-1210 leukemia in mice. Groups of 10 animals, treated with intraperitoneal injections of […] L-1210 cells, have been used at each dosage level, evaluating T/C percentage and long term survival, i.e. more than sixty days.
(§1) T/C percentage represents the percentual ratio of the mean survival time of the treated animals in comparison with the mean survival time of the control animals according to the methods described in "Anthracycline antibiotics" H. S. E. R Rhadem Edit., Academic Press, 1982.
(§2) LTS represents number of long-term (over 60 days) surviving animals with no pathologic episodes (i.e. cured animals).
A percentage of T/C over 120 indicates antitumoral activity; a percentage of T/C under 85 indicates toxicity.

Data set [1] relates to L-1210 leukemia sensitive to c-DDP. Put plainly: second experiment: L-1210 leukemia sensitive to c-DDP, T/C, LTS, TOX. It is filed as in vivo, mice. The following applies: for percentage of survivors at 60 days: 8.7.10^-6 mol/kg; for TOX (3): toxic deaths; for T/C percentage: L-1210 leukemia (sensitive to Pt), c-DDP 7 mg/kg, BBR 1734 1.55 mg/kg, BBR 1735 8 mg/kg.
Text: as §1, §2
(§3) (1) T/C: Mean survival time of treated mice/mean survival time of control
(untreated) mice × 100.
Mean survival time of treated mice is referred to dying animals only.
(2) LTS: Longterm survivors (>60 days), i.e. cured animals. Mean survival
(§4) (3) TOX: Toxic deaths are referred to animals dead before control animals
(§5) or to animals showing macroscopic toxic symptoms without tumor.
The data reported in Table 2 are the means of two subsequent experiments.

Data set [2] deals with c-DDP resistant L-1210 leukemia. The data set can be described thus: c-DDP resistant L-1210 leukemia, T/C, LTS, TOX. Type of data set: in vivo, mice. Conditions: for TOX (3): toxic deaths.
Text: as §1, §3
(untreated) mice × 100. Mean survival time of treated mice is
referred to dying animals only. N.ev.: not evaluable as consequence of th
(2) LTS: Longterms survivors (>30 days), i.e. cured animals.
as §4, §5

Data set [3] is described as follows: Acute toxicity (LD50) in mouse. Type of data set: in vivo. The following applies: intraperitoneal route.
Data set [4] in a line: body weight, kidney weight and ureic nitrogen (nephrotoxicity) at LD50 doses. It is filed as in vivo, mouse. Conditions: i.v.; for general toxicity / body weight (in words) / renal toxicity (in words): LD50 doses; for % Δ of the body weight / Final body weight / Kidney weight / Kidney weight g/100 of body weight / Initial body weight / Ureic Nitrogen: dose corresponding to respective LD50; for Initial body weight: before treatment; for Ureic Nitrogen: urea content. As for the experimental part:
The percent decrease of the body weight, the kidney weight and the ureic nitrogen excretion were determined for each treated group. The increase of kidney weight and the increase of ureic plasma content were assumed as nephrotoxic index of the compounds (see for example O. Tofanetti et al., "Tumori", 69, 105, 1983).

Where [5] appears, read: 1.93 × 10^-6 moles/kg (BBR 1734 1.55, BBR 1651 1.85, DHAQ.2HCl 1.00 mg/kg).
[6] abbreviates: 3.86 × 10^-6 moles/kg (BBR 1734 3.10, BBR 1651 3.70, DHAQ.2HCl 2.00 mg/kg).
The mark [7] stands for this setting: 7.73 × 10^-6 moles/kg (BBR 1734 6.20, BBR 1651 7.40, DHAQ.2HCl 4.00 mg/kg).
[8] abbreviates: 1.93 × 10^-6 moles/kg (DHAQ.2HCl 1.0, BBR 1651 1.85 mg/kg).
[9] abbreviates: 3.86 × 10^-6 moles/kg (DHAQ.2HCl 2.0, BBR 1651 3.7 mg/kg).
Setting [10] is: 7.73-8.68 × 10^-6 moles/kg (DHAQ.2HCl 4.0-4.5, BBR 1651 7.4-8.32 mg/kg).
[11] abbreviates: 12.93 × 10^-6 moles/kg (DHAQ.2HCl 6.7, BBR 1651 12.40 mg/kg).
The mark [12] stands for this setting: 19.3 × 10^-6 moles/kg (DHAQ.2HCl 10.0, BBR 1651 18.5 mg/kg).
Where [13] appears, read: 19.3 × 10^-6/kg (BBR 1651 18.5 mg/kg).
[14] abbreviates: 28.95 × 10^-6/kg (BBR 1651 27.75 mg/kg).
The mark [15] stands for this setting: 5.79 × 10^-6/kg (DHAQ-2HCl 3.0 mg/kg).
[16] abbreviates: 8.68 × 10^-6/kg (DHAQ-2HCl 4.5 mg/kg).

Structures are written as SMILES.

On to `CS(C)=O.CS(C)=O.Cl.Cl.O.O=C1c2c(O)ccc(O)c2C(=O)c2c(NCCNCCO)ccc(NCCNCCO)c21.[Cl][Pt][Cl]` [BBR 1651, cis-[1,4-bis-[2-(2-hydroxyethylamino)ethylamino]-5,8-dihydroxy-9,10-anthracenedione. Pt(DMSO)Cl2].2HCl.H2 O], for which the figures for the “% T/C” value with L-1210 leukemia (setting [5]) and with L-1210 leukemia (setting [6]) were 195% and 220%, respectively. The results for the “Survival after 60 days” value with L-1210 leukemia (setting [5]), with L-1210 leukemia (setting [6]) and with L-1210 leukemia (setting [7]) were 0/10, 1/10 and 7/10, respectively. The “antitumor activity (in words)” value in the data set with L-1210 leukemia is “good activities with better results than those obtained using the known c-DDP and the aminoanthracenedione ligand alone”. Besides, in data set [1] (1.39.10^-6 g/atom of Pt), the T/C was found to be 200. Also, the “LTS (2) (>60 days)” value in data set [1] (setting [8]) was 0/10; in data set [1] (setting [9]), 1/10; in data set [1] (setting [10]) it was 15/20; in data set [1] (setting [11]), 9/10; in data set [1] (setting [12]), 9/10. The entries for the “T/C (1) %” value in data set [1] (setting [8]), in data set [1] (setting [9]) and in data set [2] (setting [13]) were 200%, 221% and 186%, respectively. In addition, the “percentage of survivors at 60 days” value in data set [1] was determined as 90%. The “longterms survivors (>60 days; i.e. cured animals)” value in data set [1] (equal platinum content) is 9. Further, in data set [1] (in words), the “increase of the dead animals before control animals” value is recorded as “did not cause any increase of the dead animals before control animals”. In data set [1] (mouse, in vivo), the “activity compared with c-DDP (in words)” value is “extremely more active than the known c-DDP”. The “TOX (3)” value in data set [1] (setting [8]) is 0/10; in data set [1] (setting [9]), 0/10; in data set [1] (setting [10]) it was 0/20; in data set [1] (setting [11]) it was 0/10; in data set [2] (setting [13]), 0/10; in data set [2] (setting [14]), 1/10. Besides, the “LTS (2) (>30 days)” value is recorded as 3/10 in data set [2] (setting [13]) and 4/10 in data set [2] (setting [14]). Also, in data set [2] (animals injected with cis-platin resistant leukemia cells), the “activity (in words)” value is “active drug”.
Turning to `O=C1c2c(O)ccc(O)c2C(=O)c2c(NCCNCCO)ccc(NCCNCCO)c21` [DHAQ.2HCl, 1,4-bis-[2-(2-hydroxyethylamino)ethylamino]-5,8-dihydroxy-9,10-anthracenedione], the “% T/C” value in the data set with L-1210 leukemia (setting [5]) was 185%; with L-1210 leukemia (setting [6]) it was 214%; in the data set with L-1210 leukemia (7.73 × 10^-6 moles/kg (DHAQ.2HCl 4.00 mg/kg)) it was 235%. In addition, the “Survival after 60 days” value is 0/10 with L-1210 leukemia (setting [6]) and 2/10 in the data set with L-1210 leukemia (setting [7]). The “LTS (2) (>60 days)” value in data set [1] (setting [8]) is 0/10; in data set [1] (setting [9]), 0/10; in data set [1] (setting [10]), 8/20; in data set [1] (setting [11]) it was 4/10; in data set [1] (setting [12]), 1/10. Moreover, the “T/C (1) %” value in data set [1] (setting [8]) is given as 185%; in data set [1] (setting [9]), 214%; in data set [1] (7.73-8.68 × 10^-6 moles/kg (DHAQ.2HCl 4.0-4.5 mg/kg), range in parenthesis), 302 (235-369) %; in data set [1] (12.93 × 10^-6 moles/kg (DHAQ.2HCl 6.7 mg/kg)), 262%; in data set [1] (19.3 × 10^-6 moles/kg (DHAQ.2HCl 10.0 mg/kg)), 231%; in data set [2] (setting [15]), 145%. Further, the “T/C (1) %” value in data set [2] (setting [16]) amounted to 168%. Moreover, the “percentage of survivors at 60 days” value in data set [1] is reported as 10%. The “increase of death rate in comparison with the control animals” value in data set [1] (Higher doses of DHAQ) was “up to 90%”. Also, the “TOX (3)” value in data set [1] (setting [8]) was 0/10; in data set [1] (setting [9]) it was 0/10; in data set [1] (setting [10]), 2/20; in data set [1] (setting [11]) it was 5/10; in data set [1] (setting [12]) it was 9/10; in data set [2] (setting [15]), 0/10. Further, the “TOX (3)” value in data set [2] (setting [16]) is reported as 0/10. The “LTS (2) (>30 days)” value in data set [2] (setting [15]) is 1/10; in data set [2] (setting [16]), 2/10.
On to `Cl.Cl.O.O=C1c2ccccc2C(=O)c2c3ccc(c21)NCC[NH+](CCO)[Pt-2]([Cl])([Cl])[NH+](CCO)CCN3` (stereo not drawn) [BBR 1735, cis-[1,4-bis-[2-(2-hydroxyethylamino-ethyl)-amino]-9,10-anthracenedione.PtCl2].2HCl.H2 O], for which, in data set [1], the T/C percentage is reported as roughly 200. Besides, the “Acute toxicity (LD50)” value in data set [3] is recorded as 30.0 mg/kg. Besides, in data set [4], the “general toxicity / body weight (in words)” value is given as “general toxicity as indicated by the decrease of the body weight”, the “renal toxicity (in words)” value is “do not impair the renal excretory function and/or change the relative kidney weight”, the “% Δ of the body weight” value is listed as -5.4% and the Final body weight was determined as 33.1 ± 1.103. Besides, in data set [4], the Kidney weight was 0.428 ± 0.02, the “Kidney weight g/100 of body weight” value is given as 1.293 ± 0.042 g/100 of body weight, the Initial body weight was 34.9 ± 0.857 and the “Ureic Nitrogen” value is recorded as 14.88 ± 0.565 100 mg/ml of plasma.
Take `Cl.Cl.O.O=C1c2c(O)ccc(O)c2C(=O)c2c3ccc(c21)NCC[NH+](CCO)[Pt-2]([Cl])([Cl])[NH+](CCO)CCN3` (stereo not drawn) [BBR 1734, cis-[1,4-bis-[2-(2-hydroxyethylamino)ethylamino]-5,8-dihydroxy-9,10-anthracenedione.PtCl2].2HCl.H2 O]: in the data set on L-1210 leukemia (setting [5]), the “% T/C” value came out at 200% and the “Survival after 60 days” value was 0/10. Further, in the data set with L-1210 leukemia (setting [6]), the “% T/C” value worked out at 224% and the “Survival after 60 days” value is recorded as 1/10. Besides, the “Survival after 60 days” value in the data set on L-1210 leukemia (setting [7]) is 7/10. The “antitumor activity (in words)” value with L-1210 leukemia was “good activities with better results than those obtained using the known c-DDP and the aminoanthracenedione ligand alone”. This molecule displayed a T/C percentage in data set [1] of roughly 200. For the same molecule, the “Acute toxicity (LD50)” value in data set [3] is 22.9 mg/kg. Moreover, in data set [4], the “general toxicity / body weight (in words)” value was “general toxicity as indicated by the decrease of the body weight”, the “renal toxicity (in words)” value is given as “do not impair the renal excretory function and/or change the relative kidney weight”, the “% Δ of the body weight” value is -20.4% and the Final body weight is given as 28.4 ± 0.775. In data set [4], the Kidney weight came to 0.362 ± 0.012, the “Kidney weight g/100 of body weight” value was 1.282 ± 0.036 g/100 of body weight, the Initial body weight is recorded as 34.2 ± 0.731 and the “Ureic Nitrogen” value is 14.85 ± 0.866 100 mg/ml of plasma.
